Type in all cases: cell-based
The test system of one assay is eIF2B mutant B3 H341Q. In words: ATF4-Luc assay, VWMD eIF2B mutant HEK293T ATF4-Fluc cells, B3 H341Q. Conditions: Homo sapiens, HEK-293T. On the procedure: (§1) In order to test exemplary compounds of the invention in a cellular context, a stable VWMD cell line was first constructed. The ATF4 reporter was prepared by fusing the human full-length ATF4 5′-UTR (NCBI Accession No. BC022088.2) in front of the firefly luciferase (FLuc) coding sequence lacking the initiator methionine as described in Sidrauski et al (eLife 2013). The construct was used to produce recombinant retroviruses using standard methods and the resulting viral supernatant was used to transduce HEK293T cells, which were then subsequently selected with puromycin to generate a stable cell line.
(§2) HEK293T cells carrying the ATF4 luciferase reporter were plated on polylysine coated 384-well plates (Greiner Bio-one) at 30,000 cells per well. Cells were treated the next day with 1 μg/mL tunicamycin and 200 nM of a compound of Formula (I) for 7 hours. Luminescence was measured using One Glo (Promega) as specified by the manufacturer. Cells were maintained in DMEM with L-glutamine supplemented with 10% heat-inactivated FBS (Gibco) and Antibiotic-Antimycotic solution (Gibco).
(§3) VWMD mutations were introduced into the genome of the HEK293T ATF4-Fluc stable cell lines by using Gene Art CRISPR nuclease vector with OFP Reporter kit (ThermoFisher; see Table 3 below). Guide RNAs were designed using the CRISPR Design Tool (http://crispr.mit.edu) and ligated into the CRISPR OFP Nuclease Vector. To obtain homology directed repair (HDR) incorporating VWMD point mutations in the genome, 150 bp ssDNA ultramer oligos were synthesized by Integrated DNA Technologies containing specific mutations of interest. In addition to the VWMD mutations, the ssDNA HDR templates contained a silent mutation to the PAM site of the CRISPR gRNA sequence (to avoid further Cas9 cutting) and 75 bp of homology on each side of the mutation.
(§4) HEK293T ATF4-Fluc cells were transfected with 500 ng of the CRISPR OFP Nuclease Vector and 1 μL of 10 μM ssDNA HDR template using lipofectamine 3000 (ThermoFisher) or SF Cell Line 4D-nucleofector X Kit (Lonza) according to the manufacturer's instructions. After 2-3 days of recovery, single cells were sorted for positive OFP expression on a FACS Aria II (BD Biosciences) into wells of a 96 well plate and allowed to recover for 1-2 weeks.
(§5) The resulting clones were surveyed for CRISPR editing and HDR by harvesting the genomic DNA with the PureLink Genomic DNA kit (ThermoFisher), amplifying a […] locus near the editing site, and sequencing the amplicon. […] Typical clones obtained were hemizygous for the VWMD point mutation, with one or two alleles harboring the desired mutation, and the remaining alleles knocked out (edited to produce a premature stop codon).

The test system of a further assay is eIF2B mutant B4 R483W. Nature of the assay: ATF4-Luc assay, VWMD eIF2B mutant HEK293T ATF4-Fluc cells, B4 R483W. Conditions: Homo sapiens, HEK-293T. On the procedure: as §1, §2, §3, §4, §5
For another assay, the system named is eIF2B mutant B5 R195H. In words: ATF4-Luc assay, VWMD eIF2B mutant HEK293T ATF4-Fluc cells, B5 R195H. To be noted: Homo sapiens, HEK-293T. As for the experimental part: as §1, §2, §3, §4, §5
A further assay concerns eIF2B mutant B1 V184. In words: ATF4-Luc assay, VWMD eIF2B mutant HEK293T ATF4-Fluc cells, B1 V184. Conditions: Homo sapiens, HEK-293T. On the procedure: as §1, §2, §3, §4, §5
A further assay concerns eIF2B mutant B3 I346T. In words: ATF4-Luc assay, VWMD eIF2B mutant HEK293T ATF4-Fluc cells, B3 I346T. To be noted: Homo sapiens, HEK-293T. On the procedure: as §1, §2, §3, §4, §5
The subject of the next assay is eIF2B mutant B5 R113H. Nature of the assay: ATF4-Luc assay, VWMD eIF2B mutant HEK293T ATF4-Fluc cells, B5 R113H. Conditions: Homo sapiens, HEK-293T. On the procedure:
as §1, §2, §3, §4, §5

Another assay has as its system eIF2B mutant B4 R357W. In words: ATF4-Luc assay, VWMD eIF2B mutant HEK293T ATF4-Fluc cells, B4 R357W. To be noted: Homo sapiens, HEK-293T. On the procedure:
as §1, §2, §3, §4, §5

Assay [1] concerns ATF4 luciferase reporter in HEK293T cells. In words: ATF4-Luc assay, HEK293T cells carrying the ATF4 luciferase reporter (in vitro model of VWMD). To be noted: Homo sapiens, HEK-293T, read-out: ATF4-Luc EC50. As for the experimental part:
as §1, §2
For orientation: In a reporter assay the amount or activity of a reporter protein is the signal.

The mark [2] stands for this setting: HEK293T ATF4 luciferase reporter cells, 1 μg/mL tunicamycin, 7 hours.

Read-outs that look alike come from different tables or passages of the source.

Results on 21 molecules are retold here after patent publication US20250122188A1, “MODULATORS OF THE INTEGRATED STRESS PATHWAY” (Calico Life Sciences LLC, priority 2016, published 2025).

On to `O=C(COc1ccc(Cl)cc1)NC12CC(NC(=O)COc3ccc(Cl)cc3)(C1)C2` [Compound 112, N,N′-(bicyclo[1.1.1]pentane-1,3-diyl)bis[2-(4-chlorophenoxy)acetamide]], for which the EC50 in the assay on eIF2B mutant B3 H341Q, in the assay on eIF2B mutant B4 R483W, with eIF2B mutant B5 R195H, with eIF2B mutant B1 V184, with eIF2B mutant B3 I346T and with eIF2B mutant B5 R113H was under 0.01 µM throughout. In addition, the EC50 (as a rule, the concentration giving half of the maximal effect) in the assay on eIF2B mutant B4 R357W is under 0.01 µM.
Take `O=C(COc1ccc(C(F)(F)F)nc1)NC12CC(NC(=O)COc3ccc(Cl)c(F)c3)(C1)C2` [Compound 175, 2-(4-chloro-3-fluorophenoxy)-N-[3-(2-{[6-(trifluoromethyl)pyridin-3-yl]oxy}acetamido)bicyclo[1.1.1]pentan-1-yl]acetamide]: the EC50 in the assay on eIF2B mutant B3 H341Q is 0.01 to 0.05 µM; with eIF2B mutant B4 R483W, under 0.01 µM; with eIF2B mutant B5 R195H, 0.01 to 0.05 µM; in the assay with eIF2B mutant B1 V184, 0.05 to 0.25 µM; with eIF2B mutant B3 I346T it was under 0.01 µM; with eIF2B mutant B5 R113H, 0.01 to 0.05 µM. In the assay with eIF2B mutant B4 R357W, this molecule displayed an EC50 of 0.01 to 0.05 µM.
As to `Cc1noc(COCC(=O)NC23CC(NC(=O)COc4ccc(Cl)c(F)c4)(C2)C3)n1` [Compound 217, 2-(4-chloro-3-fluorophenoxy)-N-(3-{2-[(3-methyl-1,2,4-oxadiazol-5-yl)methoxy]acetamido}bicyclo[1.1.1]pentan-1-yl)acetamide], the EC50 in the assay on eIF2B mutant B3 H341Q, with eIF2B mutant B4 R483W, in the assay with eIF2B mutant B5 R195H, with eIF2B mutant B1 V184, in the assay with eIF2B mutant B3 I346T and in the assay with eIF2B mutant B5 R113H was over 2 µM throughout. In the assay on eIF2B mutant B4 R357W, this molecule came in with an EC50 of over 2 µM.
As for `O=C(COc1ccc(Cl)c(F)c1)NC12CCC(NCCOc3ccc(Cl)c(Cl)c3)(CC1)CC2O` (stereo not drawn) [Compound 337, 2-(4-chloro-3-fluorophenoxy)-N-(4-{[2-(3,4-dichlorophenoxy)ethyl]amino}-2-hydroxybicyclo[2.2.2]octan-1-yl)acetamide], in assay [1] (setting [2]), the EC50 was under 0.01 µM.
On to `O=C(COc1ccc(Cl)c(F)c1)NC12CC(NC(=O)Cc3ccc(C(F)(F)F)nc3)(C1)C2` [Compound 342, 2-(4-chloro-3-fluorophenoxy)-N-(3-{2-[6-(trifluoromethyl)pyridin-3-yl]acetamido}bicyclo[1.1.1]pentan-1-yl)acetamide], for which the EC50 in assay [1] (setting [2]) fell in the range of 0.25 to 500 µM.
As to `COc1ccc(/C=C/C(=O)NC23CC(NC(=O)COc4ccc(Cl)c(F)c4)(C2)C3)cc1` [Compound 347, (2E)-N-{3-[2-(4-chloro-3-fluorophenoxy)acetamido]bicyclo[1.1.1]pentan-1-yl}-3-(4-methoxyphenyl)prop-2-enamide], in assay [1] (setting [2]), the EC50 fell in the range of 0.25 to 500 µM.
As for `O=C(/C=C/c1ccc(C(F)(F)F)nc1)NC12CC(NC(=O)COc3ccc(Cl)c(F)c3)(C1)C2` [Compound 351, (2E)-N-{3-[2-(4-chloro-3-fluorophenoxy)acetamido]bicyclo[1.1.1]pentan-1-yl}-3-[6-(trifluoromethyl)pyridin-3-yl]prop-2-enamide], in assay [1] (setting [2]), the EC50 lay within 0.25 to 500 µM.
Consider `O=C(COc1ccc(Cl)c(F)c1)NC12CCC(NC(=O)COc3ccc(F)cc3)(CC1)[C@@H](O)C2` [Compound 354, 2-(4-chloro-3-fluorophenoxy)-N-{(3S)-4-[2-(4-fluorophenoxy)acetamido]-3-hydroxybicyclo[2.2.2]octan-1-yl}acetamide], for which the EC50 in assay [1] (setting [2]) was under 0.01 µM.
Regarding `O=C(COc1ccc(Cl)c(F)c1)NC12CC(NC(=O)COc3ccnn3C3CC3)(C1)C2` [Compound 371, 2-(4-chloro-3-fluorophenoxy)-N-(3-{2-[(1-cyclopropyl-1H-pyrazol-5-yl)oxy]acetamido}bicyclo[1.1.1]pentan-1-yl)acetamide], the EC50 in assay [1] (setting [2]) fell in the range of 0.25 to 500 µM.
For the molecule `O=C(COc1ccc(Cl)c(F)c1)NC12CCC(NC(=O)COc3ccc(C(F)(F)F)nc3)(CC1)[C@@H](F)C2` [Compound 373, 2-(4-chloro-3-fluorophenoxy)-N-[(3S)-3-fluoro-4-(2-{[6-(trifluoromethyl)pyridin-3-yl]oxy}acetamido)bicyclo[2.2.2]octan-1-yl]acetamide], the concentration for a half-maximal effect (EC50) in assay [1] (setting [2]) fell in the range of 0.05 to 0.25 µM.
Regarding `O=C(/C=C/c1ccc(OC(F)(F)F)cn1)NC12CC(NC(=O)COc3ccc(Cl)c(F)c3)(C1)C2` [Compound 376, (2E)-N-{3-[2-(4-chloro-3-fluorophenoxy)acetamido]bicyclo[1.1.1]pentan-1-yl}-3-[5-(trifluoromethoxy)pyridin-2-yl]prop-2-enamide], the EC50 in assay [1] (setting [2]) was 0.25 to 500 µM.
`O=C(COc1ccc(C(F)F)cc1)NC12CC(NC(=O)COc3ccc(C(F)F)cc3)(C1)C2` [Compound 389, N,N′-(bicyclo[1.1.1]pentane-1,3-diyl)bis{2-[4-(difluoromethyl)phenoxy]acetamide}]: in assay [1] (setting [2]), the EC50 fell in the range of 0.25 to 500 µM.
`O=C(COc1ccc2c(c1)OC(F)(F)O2)NC12CCC(NC(=O)COc3ccc4c(c3)OC(F)(F)O4)(C1)C2` [Compound 391, N,N′-(bicyclo[2.1.1]hexane-1,4-diyl)bis{2-[(2,2-difluoro-2H-1,3-benzodioxol-5-yl)oxy]acetamide}]: the concentration for a half-maximal effect (EC50) in assay [1] (setting [2]) is 0.25 to 500 µM.
Take `CC(O)(c1ccc(OCC(=O)NC23CC(NC(=O)COc4ccc(Cl)c(F)c4)(C2)C3)cc1)C(F)(F)F` (stereo not drawn) [Compound 413, 2-(4-chloro-3-fluorophenoxy)-N-(3-{2-[4-(1,1,1-trifluoro-2-hydroxypropan-2-yl)phenoxy]acetamido}bicyclo[1.1.1]pentan-1-yl)acetamide]: the EC50 in assay [1] (setting [2]) fell in the range of 0.25 to 500 µM.
As for `CC(C)(O)c1ccc(OCC(=O)NC23CC(NC(=O)COc4ccc(Cl)c(Cl)c4)(C2)C3)cc1` [Compound 422, 2-(3,4-dichlorophenoxy)-N-(3-{2-[4-(2-hydroxypropan-2-yl)phenoxy]acetamido}bicyclo[1.1.1]pentan-1-yl)acetamide], the EC50 in assay [1] (setting [2]) was in the range of 0.25 to 500 µM.
Turning to `O=C(COc1ccc(Cl)c(F)c1)NC12CC(NC(=O)Oc3ccc(Cl)cc3)(C1)C2` [Compound 434, 4-chlorophenyl {3-[2-(4-chloro-3-fluorophenoxy)acetamido]bicyclo[1.1.1]pentan-1-yl}carbamate], in assay [1] (7 h), the EC50 lay in the range of 0.25 to 500 µM.
For the molecule `Cc1ccc(OC(=O)NC23CC(NC(=O)COc4ccc(Cl)c(F)c4)(C2)C3)cc1` [Compound 435, 4-methylphenyl {3-[2-(4-chloro-3-fluorophenoxy)acetamido]bicyclo[1.1.1]pentan-1-yl}carbamate], the EC50 in assay [1] (7 h) fell in the range of 0.25 to 500 µM.
`CCc1cc(C)cc(OCC(=O)NC23CCC(NC(=O)COc4ccc(Cl)c(F)c4)(CC2)C[C@@H]3O)c1` [Compound 494, 2-(4-chloro-3-fluorophenoxy)-N-{(3S)-4-[2-(3-ethyl-5-methylphenoxy)acetamido]-3-hydroxybicyclo[2.2.2]octan-1-yl}acetamide]: in assay [1] (setting [2]), the EC50 fell in the range of 0.25 to 500 µM.
In the case of `COc1cc(OC)nc(OCC(=O)NC23CCC(NC(=O)COc4ccc(Cl)c(F)c4)(CC2)C[C@@H]3O)n1` [Compound 498, 2-(4-chloro-3-fluorophenoxy)-N-[(3S)-4-{2-[(4,6-dimethoxypyrimidin-2-yl)oxy]acetamido}-3-hydroxybicyclo[2.2.2]octan-1-yl]acetamide], the EC50 in assay [1] (setting [2]) lay within 0.25 to 500 µM.
Still for that read-out and setting: the figure for `O=C(COc1ccc(Cl)c(F)c1)NC12CCC(NC(=O)COc3ncccn3)(CC1)[C@@H](O)C2` [Compound 500, 2-(4-chloro-3-fluorophenoxy)-N-[(3S)-3-hydroxy-4-{2-[(pyrimidin-2-yl)oxy]acetamido}bicyclo[2.2.2]octan-1-yl]acetamide] is over 2 µM; for `CC(C)(C)c1ccc(OCC(=O)NC23CCC(NC(=O)COc4ccc(Cl)c(F)c4)(CC2)C[C@@H]3O)cc1` [Compound 506, 2-(4-tert-butylphenoxy)-N-{(2S)-4-[2-(4-chloro-3-fluorophenoxy)acetamido]-2-hydroxybicyclo[2.2.2]octan-1-yl}acetamide] it is 0.25 to 500 µM.
